Experimental data from ChEMBL document CHEMBL1132056, “First hydroxamate inhibitors for carboxypeptidase A. N-acyl-N-hydroxy-beta-phenylalanines” (Bioorg Med Chem Lett, 1999).

Molecular target: T1, Carboxypeptidase A1 (Homo sapiens, UniProt P15085)
T1 sequence (P15085 whole entry): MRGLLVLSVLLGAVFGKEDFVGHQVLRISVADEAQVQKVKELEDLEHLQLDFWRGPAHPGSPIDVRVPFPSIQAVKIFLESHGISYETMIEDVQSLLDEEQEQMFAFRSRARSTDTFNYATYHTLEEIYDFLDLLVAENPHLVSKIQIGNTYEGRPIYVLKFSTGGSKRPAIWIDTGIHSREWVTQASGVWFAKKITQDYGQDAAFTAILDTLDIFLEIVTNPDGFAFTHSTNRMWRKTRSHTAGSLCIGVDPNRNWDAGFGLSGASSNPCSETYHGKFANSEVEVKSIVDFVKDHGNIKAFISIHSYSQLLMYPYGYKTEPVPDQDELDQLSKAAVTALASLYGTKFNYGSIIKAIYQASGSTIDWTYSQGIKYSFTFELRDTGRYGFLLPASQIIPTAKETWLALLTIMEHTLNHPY
Assay: Compound was tested for its inhibitory activity against carboxypeptidase A (CPA)

Ki [nM] | Structure (SMILES)
6500 | O=C(O)C(Cc1ccccc1)CN(O)C(=O)c1ccccc1 (centres undefined)
1160 | O=C(O)C(Cc1ccccc1)CN(O)C(=O)CCCc1ccccc1 (centres undefined)
320 | O=C(O)C(Cc1ccccc1)CN(O)C(=O)Cc1ccccc1 (centres undefined)
980 | O=CN(O)CC(Cc1ccccc1)C(=O)O (centres undefined)
560 | O=CN(O)C[C@@H](Cc1ccccc1)C(=O)O
5900 | CC(=O)N(O)CC(Cc1ccccc1)C(=O)O (centres undefined)
1200 | O=C(O)C(Cc1ccccc1)CN(O)C(=O)CCc1ccccc1 (centres undefined)
4950 | O=CN(O)C[C@H](Cc1ccccc1)C(=O)O
5820 | CCC(=O)N(O)CC(Cc1ccccc1)C(=O)O (centres undefined)
